Where two headings read alike, the source gives them in different places.
Tests used:
[1] = tested on: C. Lso (Ca. L. solanacearum); assay type: in vivo, Candidatus Liberibacter solanacearum
sweet orange leaves = conditions: in vivo
[2] = tested on: C. Las (Candidatus Liberibacter asiaticus); assay type: in vivo; conditions: HLB-positive citrus plants, trunk delivery
[3] = tested on: C. Lso (Ca. L. solanacearum); assay type: in vivo, Candidatus Liberibacter solanacearum; remark: listed apart in the source
Ca. L. solanacearum = assay type: in vivo, Candidatus Liberibacter solanacearum; conditions: 30 μM peptide by stem injection; for growth of infected plants compared to mock treatment: Ca. L. solanacearum-infected Nb plants, 3 weeks of treatment, FIG. 3A; for bacterial titer compared to plants treated with mock solution: Ca. L. solanacearum-infected plants, FIGS. 3B and 7

SAMP
disease symptom ([1]; C. Lso-infected tomato, FIG. 6): largely reduced | plant growth after C. Lso infection ([1]; tomato plants pre-treated with SAMP vs mock, exposed to C. Lso positive potato psyllids 5 days, 4 weeks post infection): grew better | cell death in leaves (sweet orange leaves): No cell death | bacteria detected in the treated trees [2]: No bacteria were detected | reduction of bacterial titer of treated trees ([2]; FIG. 4: 100 nM or 10 μM once, 5 weeks): 30-100 folds | symptoms of new shoots and leaves from the treated trees ([2]; mock treated plants still have yellow patch symptoms): no longer symptomatic | time to complete digestion by pepsin (human protease pepsin): ≤ 45 min | disease symptom ([3]; C. Lso-infected potato, FIG. 5): clearly inhibited | yield of tuber production ([3]; C. Lso-infected potato, FIG. 5): increased | plant growth after C. Lso infection ([3]; potato plants pre-treated with SAMP 10 μM vs mock, exposed to C. Lso positive potato psyllids 5 days, 3 weeks post infection): grew better

B1: CghSAMPa: stable antimicrobial peptide from Eremocitrus glauca x citrus sp., SEQ ID NO: 1, expressed and purified in E. coli (protein)
chain: MCCNRGKNVSIENLHQGFTHIFESTFESTEGVAEYVSHPSHVEYANLFLANLEKVLVIDYKPTTVRV
growth of infected plants compared to mock treatment (Ca. L. solanacearum): grow much better | bacterial titer compared to plants treated with mock solution (Ca. L. solanacearum): much lower

B2: CghSAMPb: stable antimicrobial peptide from Eremocitrus glauca x citrus sp., SEQ ID NO: 2, expressed and purified in E. coli (protein)
chain: MCCNRGKNVSIENLHQGFPHLFEFTFESTEGVAEYVSHPAHVEYANLFLANLEKVLVIDYKPTTVRV
growth of infected plants compared to mock treatment (Ca. L. solanacearum): grow much better | bacterial titer compared to plants treated with mock solution (Ca. L. solanacearum): much lower

— patent publication US11963533B2 (priority 2017, dated 2024)
